Results: PMC8158687, “Xanthones Active against Multidrug Resistance and Virulence Mechanisms of Bacteria” (Antibiotics, 2021)

Tested on: S. aureus 272123
Experiment: Efflux pump inhibition assay (real-time ethidium bromide accumulation)
Assay type: cell-based, Staphylococcus aureus
Settings: compound 50 µM, EB 1 µg/mL, minute 60
Method: Compounds 1–20 were assessed for their capability of modulating ethidium bromide (EB) accumulation on two resistant strains. […] However, norA is a core gene of the S. aureus as a species, which means that the NorA pump occurs in all S. aureus strains.
(§1) Salmonella enterica serovar Typhimurium SE03, was used as a Gram-negative bacterium. This strain has a deletion of the acrA gene, which was predicted with the least affinity for the compounds. The aim of these studies was to perform a first screening of these compounds and their ability to modulate the efflux of EB. […] The relative fluorescence index (RFI) was calculated based on the means of relative fluorescence units, depicted in Table 2.
(§2) Compounds 1–20 were evaluated for their ability to inhibit efflux pumps in SE03 and S. aureus 272123 strains, through the real-time fluorimetry, monitoring the intracellular accumulation of EB, an efflux pump substrate. This was determined by the automated method using a CLARIOstar Plus plate reader (BMG Labtech, Ortenberg, Germany). Reserpine and CCCP were applied at 25 µM as positive controls, and the solvent DMSO was applied at 1% v/v. The bacterial strains were incubated in an appropriate culture media (TSB—S. aureus 272123; LB-B—SE03) at 37 °C until they reached an optical density (OD) between 0.4 and 0.6 at λ = 600 nm. The culture was centrifuged at 13,000× g for 3 min, and the pellet washed and resuspended with PBS. The suspension was centrifuged again in the same conditions and resuspended in PBS. The compounds were applied at 50 µM in a solution of a non-toxic concentration of EB (1 µg/mL) in PBS. Then, 50 µL of this solution were transferred into a 96-well black microtiter plate (Greiner Bio-One Hungary Kft, Mosonmagyaróvár, Fertősor, Hungary), and 50 µL of bacterial suspension (OD600 0.4–0.6) were added to each well. The plates were placed into the CLARIOstar plate reader, and the fluorescence was monitored at excitation and emission wavelengths of 530 nm and 600 nm every minute for one hour on a real-time basis. From the real-time data, the activity of the compounds, namely the RFI of the last time point (minute 60) of the EB accumulation assay, was calculated according to the following formula:(1) RFI=RFtreated−RFuntreated/RFuntreated where RFtreated is the relative fluorescence (RF) at the last time point of EB accumulation curve in the presence of the compound, and RFuntreated is the RF at the last time point of the EB accumulation curve of the untreated control, having only the solvent (DMSO) control. The accumulation curves were designed using Microsoft Excel®.

Row | SMILES | RFI ± SD (relative fluorescence index)
1 | COc1cc(C=O)c2c(=O)c3ccccc3oc2c1O [Compound 14] | −0.28 ± 0.06 ^2
2 | COc1cc(C=O)c2c(=O)c3ccccc3oc2c1OC [Compound 15] | 0.08 ± 0.07 ^4
3 | COC(=O)c1cc(OC)c(OC)c2oc3cc(OC)ccc3c(=O)c12 [Compound 17] | −0.34 ± 0.02 ^5
4 | COc1cc(CNCc2ccc(Cl)cc2)c2c(=O)c3ccccc3oc2c1OC [Compound 18] | −0.01 ± 0.04 ^3
5 | COc1cc(CNCc2ccc(F)cc2)c2c(=O)c3ccccc3oc2c1OC [Compound 19] | 0.02 ± 0.02 ^3
6 | COc1cc(CN[C@H](C)c2ccc(Cl)cc2)c2c(=O)c3ccccc3oc2c1OC [Compound 20] | 1.08 ± 0.82 ^4

Tested on: SE03 (acrA gene-inactivated Salmonella enterica serovar Typhimurium SL1344)
Experiment: as above
Assay type: cell-based
Settings: compound 50 µM, EB 1 µg/mL, minute 60
Method: as §1, §2

Row | SMILES | RFI ± SD (relative fluorescence index)
7 | COc1cc(C=O)c2c(=O)c3ccccc3oc2c1O [Compound 14] | 0.02 ± 0.02 ^7
8 | COc1cc(C=O)c2c(=O)c3ccccc3oc2c1OC [Compound 15] | 0.13 ± 0.09 ^9
9 | COC(=O)c1cc(OC)c(OC)c2oc3cc(OC)ccc3c(=O)c12 [Compound 17] | −0.29 ± 0.08 ^10
10 | COc1cc(CNCc2ccc(Cl)cc2)c2c(=O)c3ccccc3oc2c1OC [Compound 18] | 0.04 ± 0.04 ^8
11 | COc1cc(CNCc2ccc(F)cc2)c2c(=O)c3ccccc3oc2c1OC [Compound 19] | 2.86 ± 0.14 ^8
12 | COc1cc(CN[C@H](C)c2ccc(Cl)cc2)c2c(=O)c3ccccc3oc2c1OC [Compound 20] | 2.09 ± 0.05 ^11

Tested on: S. aureus 272123
Experiment: Inhibition of biofilm formation (crystal violet)
Assay type: cell-based, Staphylococcus aureus
Settings: half the MIC, or 100 µM if MIC >100 µM, 48 h, 30 °C
Method: The biofilm inhibition, presented in percentages (%), was calculated based on the mean of absorbance units.
The bacterial strains used were the Gram-positive S. aureus ATCC 25923 and S. aureus 272123. The detection of the biofilm formation was possible with the use of the dye crystal violet (CV; 0.1% v/v). The initial inoculum was incubated in TSB overnight, and then diluted to an OD600 of 0.1. Then, the bacterial suspension was added to 96-well microtiter plates and the compounds were added at half the MIC. […] The final volume in each well was 200 µL. […] The plates were incubated at 30 °C for 48 h, with gentle stirring (100 rpm). After this incubation period, the TSB medium was discarded, and the plates were washed with tap water to remove unattached cells. Afterwards, 200 µL of a 0.1% v/v CV solution were added to the wells and incubated for 15 min at room temperature. Then, the CV solution was removed from the wells, and the plates were washed again with tap water, and 200 µL of a 70% ethanolic solution were added to the wells. The biofilm formation was determined by measuring the OD600 using a Multiscan EX ELISA plate reader (Thermo Labsystems, Cheshire, WA, USA). The anti-biofilm effect of the compounds was expressed as the percentage (%) of decrease in biofilm formation.

Row | SMILES | Inhibition of Biofilm Formation (%) ± SD
13 | COc1cccc2oc3ccccc3c(=O)c12 [Compound 11] | 39.95 ± 7.66 ^3%
14 | COc1cc(CNCc2ccc(F)cc2)c2c(=O)c3ccccc3oc2c1OC [Compound 19] | 65.03 ± 9.86 ^4%
15 | COc1cc(CN[C@H](C)c2ccc(Cl)cc2)c2c(=O)c3ccccc3oc2c1OC [Compound 20] | 77.17 ± 4.45 ^4%

Tested on: S. aureus ATCC 29213
Experiment: Inhibition of biofilm formation (crystal violet)
Assay type: cell-based, Staphylococcus aureus
Settings: half the MIC, or 100 µM if MIC >100 µM, 48 h, 30 °C

Row | SMILES | Inhibition of Biofilm Formation (%) ± SD
16 | COc1cccc2oc3ccccc3c(=O)c12 [Compound 11] | 0 ^1%

Tested on: Serratia marcescens AS-1
Experiment: Quorum sensing inhibition assay (disk, pigment production)
Assay type: cell-based
Settings: AS1, read-out: Quorum Sensing Inhibition (mm) ± SD
Description: (§3) The sensor strain Chromobacterium violaceum CV026 and the acyl-homoserine lactones (AHLs) producer strain Sphingomonas paucimobilis Ezf 10-17 (EZF) were inoculated as parallel lines, and the AHL producers, Chromobacterium violaceum wild type 85 (wt85) and Serratia marcescens AS-1 were inoculated as a single line.
(§4) For the QS tests, all the bacteria used were Gram-negative. The bacteria used were Chromobacterium violaceum wild type 85 (wt85), characterized by the AHL signal molecule-mediated production of the purple violacein pigment, capable of endogenous QS-signal molecule production (N-hexanoyl-L-HSL), C. violaceum CV026 (CV026), a Tn5 transposase-mutant, AHL-signal molecule indicator strain (produces purple violacein pigment in the presence of AHL), which is incapable of endogenous QS-signal molecule-production, but useful in the detection of external stimuli, Sphingomonas paucimobilis Ezf 10-17 (EZF), AHL-producing-strain (used with C. violaceum CV026), and Serratia marcescens AS-1, characterized by the AHL signal molecule-mediated production of the orange–red pigment prodigiosin (2-methyl-3-pentyl-6-methoxyprodigiosin), capable of endogenous QS-signal molecule production (N-hexanoyl-L-HSL), were applied.
(§5) The QS inhibitory effect of the compounds was examined on the EZF and the sensor CV026 strains, on the wt85 strain, and on S. marcescens, for 4, 5, 11, 12, 16, 19, and 20. The method used was the parallel inoculation method, where pair combinations of the used sensor strain CV026 and the N-acyl-homoserine lactone (AHL)-producing strain EZF were inoculated directly onto the LB*-A agar surface in parallel, at an approximate distance of 5 mm from each other. S. marcescens AS-1 and wt85 were inoculated as a single line. Filter paper disks (7 mm in diameter) were placed on the center of the inoculated line(s) and impregnated with 8 µL of a solution of 10 mM of the compounds. […] The agar plates were incubated at room temperature (20 °C) for 24–48 h. The QS inhibition was accessed visually, through the inhibition of pigment production. The discolored, but intact, bacterial colonies were measured with a ruler.

Row | SMILES | zone of inhibition at 10000 µM
17 | COc1cccc2oc3ccccc3c(=O)c12 [Compound 11] | 0 mm
18 | COc1cc(CNCc2ccc(F)cc2)c2c(=O)c3ccccc3oc2c1OC [Compound 19] | 0 mm
19 | COc1cc(CN[C@H](C)c2ccc(Cl)cc2)c2c(=O)c3ccccc3oc2c1OC [Compound 20] | 0 mm
20 | CC(CN1c2ccccc2Sc2ccccc21)N(C)C (stereo not shown) [PMZ, promethazine, reference compound] | 18 ± 0.8 mm

Tested on: Chromobacterium violaceum wild type 85 (wt85)
Experiment: as above
Assay type: cell-based
Settings: read-out: Quorum Sensing Inhibition (mm) ± SD
Description: as §3, §4, §5

Row | SMILES | zone of inhibition at 10000 µM
21 | COc1cccc2oc3ccccc3c(=O)c12 [Compound 11] | 0 mm
22 | COc1cc(CNCc2ccc(F)cc2)c2c(=O)c3ccccc3oc2c1OC [Compound 19] | 0 mm
23 | COc1cc(CN[C@H](C)c2ccc(Cl)cc2)c2c(=O)c3ccccc3oc2c1OC [Compound 20] | 0 mm
24 | CC(CN1c2ccccc2Sc2ccccc21)N(C)C (stereo not shown) [PMZ, promethazine, reference compound] | 41 ± 0.5 mm

Tested on: EZF + CV026 (Sphingomonas paucimobilis Ezf 10-17 + Chromobacterium violaceum CV026)
Experiment: Quorum sensing inhibition assay (parallel inoculation, pigment production)
Assay type: cell-based
Settings: read-out: Quorum Sensing Inhibition (mm) ± SD
Description: as §3, §4, §5

Row | SMILES | zone of inhibition at 10000 µM
25 | COc1cccc2oc3ccccc3c(=O)c12 [Compound 11] | 0 mm
26 | COc1cc(CNCc2ccc(F)cc2)c2c(=O)c3ccccc3oc2c1OC [Compound 19] | 0 mm
27 | COc1cc(CN[C@H](C)c2ccc(Cl)cc2)c2c(=O)c3ccccc3oc2c1OC [Compound 20] | 0 mm
28 | CC(CN1c2ccccc2Sc2ccccc21)N(C)C (stereo not shown) [PMZ, promethazine, reference compound] | 40 ± 0.1 mm

Tested on: not listed separately
Experiment: Cytotoxicity assay (MTT)
Assay type: cell-based, mouse
Settings: mouse, NIH/3T3 mouse fibroblast cells, 24 h, MTT, read-out: Cytotoxicity IC50 (µM) ± SD
Method: In order to apply efflux pump inhibitors to treat patients, several issues should be addressed.
Mouse fibroblasts (NIH/3T3, ATCC CRL-1658TM) were cultivated in DMEM (Gibco 52100-039) and supplemented with 10% heat-inactivated fetal bovine serum (Biowest, VWR International Kft, Debrecen, Hungary), 2 mM of L-glutamine, 1 mM Na pyruvate, 100 U/L and 10 mg/L penicillin/streptomycin mixture (Sigma-Aldrich Chemie GmbH, Steinheim, Germany), respectively, and 0.1% nystatin (8.3 g/L in ethylene glycol). The adherent cells were detached using a combination of 0.25% Trypsin–Versene (EDTA) solution for 5 min at 37 °C. Before each cytotoxicity assay using this cell line, cells were seeded in untreated 96-well flat-bottom microtiter plates, following a 4-h incubation period in a humidified atmosphere (5% CO2, 95% air) at 37 °C [60].
The cytotoxicity of 4, 12, 16, 19, and 20 was assessed in NIH/3T3 cells. The compounds were added to the cells distributed into 96-well flat bottom microtiter plates at concentrations of […] and initially incubated for 24 h, after which a solution of MTT in PBS was added to each well and incubated for another 4 h. The concentrations used were the same as in the MIC assay. After this, 100 μL of SDS (10% in a 0.01 M HCl solution) were added to each well and incubated overnight at 37 °C. Doxorubicin was used as the positive control. Cell growth was determined in quadruplicate by measuring OD at λ = 540 nm (reference 630 nm) in a Multiscan EX ELISA reader (Thermo Labsystems, Cheshire, WA, USA). The percentage of inhibition of cell growth was determined according to the equation: (2) 100−(ODsample−ODmedium control/ODcell control−ODmedium control)×100

Row | SMILES | IC50 at 24 h
29 | COc1cc(CNCc2ccc(F)cc2)c2c(=O)c3ccccc3oc2c1OC [Compound 19] | > 100 µM
30 | COc1cc(CN[C@H](C)c2ccc(Cl)cc2)c2c(=O)c3ccccc3oc2c1OC [Compound 20] | 35.1 ± 4.86 µM
31 | COc1cccc2c1C(=O)c1c(O)c3c(c(O)c1C2=O)C[C@@](O)(C(=O)CO)C[C@@H]3O[C@H]1C[C@H](N)[C@H](O)[C@H](C)O1 [Doxorubicin, reference compound] | 12.1 ± 0.81 µM
